{
  "source": "patent US6080573A",
  "about": "“Enzymatic oxidation process” (Lever Brothers Company, Division of Conopco, Inc., priority 1996, dated 2000)",
  "key": {"[1]": {"test_system": "peroxidase", "test": "Peroxidase bleach enhancement: bleaching of Reactive Black 5", "assay_type": "biochemical, Hormographiella species", "conditions": "pH 9, 25° C.; for OD reading at 590 nm (Reactive Black 5): tyrosine 200 μM or peptide 100 μM", "method": "(§1) Dye bleach experiments were performed using a partially purified peroxidase derived from an Hormographiella species. The enzyme was purified by ultrafiltration from the fermentation broth, followed by ion-exchange chromatography using Q-Sepharose (Pharmacia) at pH 7. Enzyme activity is expressed as ABTS (2,2'-azino-bis(3-ethylbenzothiazoline-6-sulphonic acid) units. One ABTS unit represents the amount of enzyme which oxidizes ABTS, resulting in an increase of 1 optical density at 418 nm. Conditions for the activity assay were 2 mM ABTS, 1 mM H2 O2, 20 mM Tris, pH 9.\n(§2) Bleaching experiments were conducted at 25° C. in 20 mM Phosphate buffer, set at pH 9. Added peroxidase activity was 60 ABTS units per millilitre. The peptide GGSCGYHYQHCGQG (one letter amino acid code) was added as a peroxidase enhancer at a concentration of 100 μM. The Reactive Black 5 concentration was 30 μM, and the H2 O2 concentration was 250 μM.\n(§3) Bleaching of Reactive Black 5 was monitored by the decrease in optical density at 590 nm. The enhancing activity of the peptide was compared to that of the free amino acid tyrosine. As the peptide contains 2 tyrosine residues, 200 μM of the amino acid was added, as a comparison to 100 μM of peptide."}, "[2]": {"test_system": "peroxidase", "test": "Peroxidase bleach enhancement: bleaching of red beet solution", "assay_type": "biochemical, Hormographiella species", "conditions": "conditions as in example 3", "method": "as §1, §2, §3\nIn order to study the selectivity of the peptide enhanced reaction, the bleaching of a red beet solution with the system was assayed. The extract of red beet is, as with dyes, susceptible the action of peroxidase enhancers. […] Experimental conditions are as in example 3."}, "[3]": {"test": "Dye transfer prevention: washing a coloured swatch in the presence of a white pick-up swatch with peroxidase", "parameters": "key to ΔE (colour difference): CIELAB colour difference ΔE vs control swatch without peptide; key to ΔL (whiteness): difference in CIELAB L* (lightness) vs control swatch", "conditions": "for ΔE (colour difference) / ΔL (whiteness): pH 9, 30 minutes, 40° C., versus control swatch without peptide enhancer; for dye transfer prevention / effect on white swatch: result in words", "method": "The potential of the enzymatic system to prevent dye transfer was assessed by washing a coloured swatch in the presence of a white pick-up swatch. The experiments were performed in 25 ml Phosphate buffer, pH 9, containing the two swatches of 5×5 cm. The experiments were performed using a partially purified peroxidase derived from an Hormographiella species. Experiments were performed in the presence of 12 ABTS units/ml. The fabrics were agitated in the wash solution (25 ml) for 30 minutes at 40° C. The fabrics were line dried and the reflectance spectra were measured using a Minolta spectrometer. The data thereby obtained was transferred to the CIELAB L*a*b* colour space parameters. In this colour space, L* indicates lightness and a* and b* are the chromaticity coordinates. The colour differences between the control swatch, without addition the peptide enhancer, and the swatches washed in the presence of different concentrations of peptide, were expressed as ΔE, calculated from the following equation: [formula]"}, "[4]": {"test": "ELISA: binding of alkaline phosphatase-Reactive Red 6 conjugate (AP-RR6) to peptide-coated plates", "conditions": "plates coated with 1 mg/ml peptide, p-nitro-phenyl-phosphate, 30 minutes", "method": "The specific binding of peptide #1 (NH2-GGSCGYHYQHCGQG-COOH) to the dye Reactive Red 6 was measured (the peptide contains one disuphide bridge through the cysteine residues, sequence of the peptides is given in one letter amino acid codes).\n(§4) For the detection of binding, the enzyme Alkaline Phosphatase (AP, 2.5 mg/ml) was conjugated with the reactive dye Reactive Red 6 (RR6, 1.25 mM), by incubation of the enzyme with the dye during 2 hours, at room temperature in Borate buffer, 0.1 M, 0.15 M NaCl, pH 8.5. The dye thereby becomes covalently linked to the amino groups of the enzyme by its triazine unit. Free dye was separated from the enzyme conjugate by gel filtration (PD-10 column, Pharmacia). Elisa plates (Polysorb, Nunc) were coated overnight with 100 μl of a 1 mg/ml peptide solution in Phosphate buffer, 150 mM NaCl, pH 7.4 (PBS). The peptide coated ELISA plates were blocked with 2% Bovine Serum Albumin (BSA) in PBS for 1 hour, room temperature. The Alkaline Phosphatase--RR6 conjugate (AP-RR6) was then incubated for 1 hour, room temperature, in incubation buffer (0.2 M Tris, 20 mM NaCl, 1% PEG 6000, 5% BSA). The plates were washed plates 3 times with wash buffer (0.2 M Tris, 60 mM Citrate, 0.1 M NaCl, 0.05% Tween) and 3 times with demineralized water. Bound Alkaline Phosphatase (AP) was then detected by incubation with the substrate p-nitro-phenyl-phosphate. […] As a control, Alkaline Phosphatase, not conjugated to the dye, was used."}, "[5]": {"test_system": "Alkaline Phosphatase", "test": "ELISA control: binding of unconjugated Alkaline Phosphatase (AP) to peptide-coated plates", "conditions": "control: Alkaline Phosphatase not conjugated to the dye; plates coated with 1 mg/ml peptide; 30 minutes", "method": "as §4"}},
  "data": [
    {"compound": "N[C@@H](Cc1ccc(O)cc1)C(=O)O", "note": "[tyrosine]", "values": [
      {"measurement": "OD reading at 590 nm (Reactive Black 5)", "setting": "[1]; 0 minutes after incubation", "result": 0.651},
      {"measurement": "OD reading at 590 nm (Reactive Black 5)", "setting": "[1]; 2 minutes after incubation", "result": 0.606},
      {"measurement": "OD reading at 590 nm (Reactive Black 5)", "setting": "[1]; 4 minutes after incubation", "result": 0.580},
      {"measurement": "OD reading at 590 nm (Reactive Black 5)", "setting": "[1]; 6 minutes after incubation", "result": 0.559},
      {"measurement": "OD reading at 590 nm (Reactive Black 5)", "setting": "[1]; 8 minutes after incubation", "result": 0.540},
      {"measurement": "OD reading at 590 nm (Reactive Black 5)", "setting": "[1]; 10 minutes after incubation", "result": 0.523},
      {"measurement": "OD reading at 590 nm (Reactive Black 5)", "setting": "[1]; 12 minutes after incubation", "result": 0.507},
      {"measurement": "OD reading at 590 nm (Reactive Black 5)", "setting": "[1]; 14 minutes after incubation", "result": 0.494},
      {"measurement": "bleaching of red beet solution (optical density)", "setting": "[2]; 0 minutes after incubation", "result": 1.082},
      {"measurement": "bleaching of red beet solution (optical density)", "setting": "[2]; 2 minutes after incubation", "result": 1.076},
      {"measurement": "bleaching of red beet solution (optical density)", "setting": "[2]; 4 minutes after incubation", "result": 1.06},
      {"measurement": "bleaching of red beet solution (optical density)", "setting": "[2]; 6 minutes after incubation", "result": 1.022},
      {"measurement": "bleaching of red beet solution (optical density)", "setting": "[2]; 8 minutes after incubation", "result": 0.906},
      {"measurement": "bleaching of red beet solution (optical density)", "setting": "[2]; 10 minutes after incubation", "result": 0.739},
      {"measurement": "bleaching of red beet solution (optical density)", "setting": "[2]; 12 minutes after incubation", "result": 0.591},
      {"measurement": "bleaching of red beet solution (optical density)", "setting": "[2]; 14 minutes after incubation", "result": 0.488},
      {"measurement": "ΔE (colour difference)", "setting": "[3]; 25 μM", "result": 0.55},
      {"measurement": "ΔL (whiteness)", "setting": "[3]; 25 μM", "result": -0.5},
      {"measurement": "ΔE (colour difference)", "setting": "[3]; 50 μM", "result": 0.63},
      {"measurement": "ΔL (whiteness)", "setting": "[3]; 50 μM", "result": -0.6},
      {"measurement": "ΔE (colour difference)", "setting": "[3]; 100 μM", "result": 2.05},
      {"measurement": "ΔL (whiteness)", "setting": "[3]; 100 μM", "result": -2.0},
      {"measurement": "dye transfer prevention / effect on white swatch", "setting": "[3]", "result": "darkening of the white swatch (negative ΔL)"}
    ]},
    {"compound": "Arg-Arg [Arg--Arg]", "values": [
      {"measurement": "OD 450 nm values, AP-RR6", "setting": "[4]", "result": 0.09},
      {"measurement": "OD 450 nm values, AP", "setting": "[5]", "result": 0.003}
    ]},
    {"compound": "Lys-Lys-Lys [Lys--Lys--Lys]", "values": [
      {"measurement": "OD 450 nm values, AP-RR6", "setting": "[4]", "result": 0.31},
      {"measurement": "OD 450 nm values, AP", "setting": "[5]", "result": 0.023}
    ]},
    {"compound": "NH2-GGSCGYHYQHCGQG-COOH (H-GGSCGYHYQHCGQG-OH; cysteine pairing not given here) [Peptide #1]", "values": [
      {"measurement": "OD reading at 590 nm (Reactive Black 5)", "setting": "[1]; 0 minutes after incubation", "result": 0.651},
      {"measurement": "OD reading at 590 nm (Reactive Black 5)", "setting": "[1]; 2 minutes after incubation", "result": 0.430},
      {"measurement": "OD reading at 590 nm (Reactive Black 5)", "setting": "[1]; 4 minutes after incubation", "result": 0.344},
      {"measurement": "OD reading at 590 nm (Reactive Black 5)", "setting": "[1]; 6 minutes after incubation", "result": 0.294},
      {"measurement": "OD reading at 590 nm (Reactive Black 5)", "setting": "[1]; 8 minutes after incubation", "result": 0.263},
      {"measurement": "OD reading at 590 nm (Reactive Black 5)", "setting": "[1]; 10 minutes after incubation", "result": 0.241},
      {"measurement": "OD reading at 590 nm (Reactive Black 5)", "setting": "[1]; 12 minutes after incubation", "result": 0.227},
      {"measurement": "OD reading at 590 nm (Reactive Black 5)", "setting": "[1]; 14 minutes after incubation", "result": 0.216},
      {"measurement": "bleaching activity of the peroxidase in the presence of the peptide", "setting": "[1]; result in words", "result": "enhanced bleaching activity"},
      {"measurement": "bleaching of red beet solution (optical density)", "setting": "[2]; 0 minutes after incubation", "result": 1.091},
      {"measurement": "bleaching of red beet solution (optical density)", "setting": "[2]; 2 minutes after incubation", "result": 1.083},
      {"measurement": "bleaching of red beet solution (optical density)", "setting": "[2]; 4 minutes after incubation", "result": 1.063},
      {"measurement": "bleaching of red beet solution (optical density)", "setting": "[2]; 6 minutes after incubation", "result": 1.016},
      {"measurement": "bleaching of red beet solution (optical density)", "setting": "[2]; 8 minutes after incubation", "result": 0.881},
      {"measurement": "bleaching of red beet solution (optical density)", "setting": "[2]; 10 minutes after incubation", "result": 0.709},
      {"measurement": "bleaching of red beet solution (optical density)", "setting": "[2]; 12 minutes after incubation", "result": 0.567},
      {"measurement": "bleaching of red beet solution (optical density)", "setting": "[2]; 14 minutes after incubation", "result": 0.477},
      {"measurement": "reaction enhancement over tyrosine, red beet solution", "setting": "[2]; result in words", "result": "there is not reaction enhancement of the peptide over tyrosine"},
      {"measurement": "ΔE (colour difference)", "setting": "[3]; 25 μM", "result": 2.46},
      {"measurement": "ΔL (whiteness)", "setting": "[3]; 25 μM", "result": 2.40},
      {"measurement": "ΔE (colour difference)", "setting": "[3]; 50 μM", "result": 2.85},
      {"measurement": "ΔL (whiteness)", "setting": "[3]; 50 μM", "result": 2.80},
      {"measurement": "ΔE (colour difference)", "setting": "[3]; 100 μM", "result": 3.62},
      {"measurement": "ΔL (whiteness)", "setting": "[3]; 100 μM", "result": 3.50},
      {"measurement": "dye transfer prevention / effect on white swatch", "setting": "[3]", "result": "clear dye transfer prevention benefit, resulting in a lighter white swatch"},
      {"measurement": "OD 450 nm values, AP-RR6", "setting": "[4]", "result": 2.36},
      {"measurement": "OD 450 nm values, AP", "setting": "[5]", "result": 0.047}
    ]},
    {"compound": "Val-Gly-Ser-Glu (VGSE; printed: Val-Gly-Ser-Glu) [V--G--S--E]", "values": [
      {"measurement": "OD 450 nm values, AP-RR6", "setting": "[4]", "result": 0.03},
      {"measurement": "OD 450 nm values, AP", "setting": "[5]", "result": 0.003}
    ]}
  ]
}
